Experimental data reported in patent publication US20260001875A1, “AMINOPYRIMIDINYL DERIVATIVES FOR THE TREATMENT OF PARKINSON'S DISEASE” (UNIVERSITY OF DUNDEE, priority 2022, published 2026).

Legend:
Rab10 pThr73 [1] = assay: Rab10 Thr73 dephosphorylation (immunoblot) in WT MEFs; type: cell-based, mouse; details: Mus musculus, read-out: pRab10 inhibited in WT MEFs
Procedure: (§1) Western blot degradation assays for the LRRK2 protacs were performed with WT and PD-associated LRRK2 [G2019S] mouse embryonic fibroblasts (MEFs). The second-generation PROTACs were tested in parallel with the first generation PROTACs SD75, SD82, and SD100. The compounds were tested at 33 nM or […] concentrations for 4 hours or 24 hours, running two biological replicates per condition and achieving quantifications representative of both replicates. Analysis by quantitative immunoblotting was performed with readouts of the total LRRK2 (antibody recognizes epitope in C-terminus of protein), Rab10 pThr73 (physiological substrate) and LRRK2 pSer935 (biomarker phosphorylation site).
(§2) Primary MEFs were generated as described in a previous study (Wiggin et al., Mol. Cell Biol. 2002 April; 22(8):2871-81.). Briefly, the uterine horn was collected from adult female mice at day E12.5 and transferred to a 10 cm tissue culture dish containing cold PBS. Two forceps were used to tear the yolk sacs to isolate each embryo. Forceps were cleaned thoroughly with 70% ethanol between each embryo isolation. The embryos were culled, and a tissue piece was collected in a PCR tube for genotyping. The red tissue of the embryo, which grows to become the heart and liver, was removed. The remainder of the embryo was minced with a scalpel blade and incubated with 7.5 ml trypsin-EDTA solution for 10 minutes in a 37° C. tissue culture CO2 incubator. The dish was removed from the incubator and checked under a light microscope for single cells. 7.5 ml complete media was added to the trypsinised cells, and the cell suspension was transferred to a 15 ml Falcon tube, centrifuged at 1200 rpm for 5 minutes at room temperature. The trypsin was aspirated, the cell pellet was resuspended in 5 ml fresh complete media, and the cell suspension was plated in a 60 mm tissue culture dish and incubated in a 37° C., 5% CO2 tissue culture incubator. The MEFs at this stage were considered as passage 0 and were passaged and expanded for experimental use once the genotype was confirmed by allelic sequencing and immunoblotting. MEFs were cultured in Dulbecco's modified Eagle medium (DMEM) containing 10% (v/v) fetal bovine serum (FBS), 2 mM L-glutamine, 100 U/ml penicillin, and 100 μg/ml streptomycin supplemented with 1× non-essential amino acids and 1 mM sodium pyruvate.
Culturing and passaging of adherent cell lines were carried out using aseptic technique in CL1 or CL2 (for PBMC isolation) biological safety cabinets. All cells were incubated in a 37° C. incubator with 5% CO2. Cell lines were regularly tested for mycoplasma contamination. For western blot assay, the cells were seeded in 6-well plates. After treating with testing compounds at indicated concentrations and time period, the media was removed and the cells were washed with PBS and lysed in 100 μl ice-cold complete lysis buffer containing 50 mM Tris-HCl pH 7.4, 1 mM EGTA, 10 mM 2-glycerophosphate, 50 mM sodium fluoride, 5 mM sodium pyrophosphate, 270 mM sucrose, supplemented with 1 μg/ml microcystin-LR, 1 mM sodium orthovanadate, complete EDTA-free protease inhibitor cocktail (Roche) and 1% (v/v) Triton X-100. The cells were immediately placed on ice and were scraped and collected into 1.5 ml Eppendorf tubes. Cell lysates were incubated on ice for 10 minutes prior to centrifugation at 15,000 g at 4° C. for 15 minutes. The cell pellet was discarded, and supernatant was collected for analysis by quantitative immunoblotting. For long term storage, the supernatant was flash frozen and stored at −80° C. Protein concentrations of cell lysates were determined using the Bradford assay.
Cell lysates containing a quarter of a volume of 4× NuPAGE LDS sample buffer (NP0007) supplemented with 5% β-mercaptoethanol, were heated at 95° C. for 5 minutes. […]

Rab10 pThr73 [2] = assay: Rab10 Thr73 dephosphorylation (immunoblot) in LRRK2^G2019S MEFs; type: cell-based; details: Mus musculus, read-out: pRab10 inhibited in LRRK2^G2019S MEFs
Procedure: as §1, with “The” for “Western blot degradation assays for the LRRK2 protacs were performed with WT and PD-associated LRRK2 [G2019S] mouse embryonic fibroblasts (MEFs). The”
as §2
Culturing and passaging of adherent cell lines were carried out using aseptic technique in CL1 or CL2 (for PBMC isolation) biological safety cabinets. All cells were incubated in a 37° C. incubator with 5% CO2. Cell lines were regularly tested for mycoplasma contamination. For western blot assay, the cells were seeded in 6-well plates. […] The cells were immediately placed on ice and were scraped and collected into 1.5 ml Eppendorf tubes. Cell lysates were incubated on ice for 10 minutes prior to centrifugation at 15,000 g at 4° C. for 15 minutes. The cell pellet was discarded, and supernatant was collected for analysis by quantitative immunoblotting. For long term storage, the supernatant was flash frozen and stored at −80° C. Protein concentrations of cell lysates were determined using the Bradford assay.
Cell lysates containing a quarter of a volume of 4× NuPAGE LDS sample buffer (NP0007) supplemented with 5% β-mercaptoethanol, were heated at 95° C. for 5 minutes. 15 to 20 μg of samples were loaded onto pre-cast 4-12% Bis-Tris midi 20W or 26W gels (Thermofisher Scientific®, Cat #WG1402BOX or WG1403BOX) and resolved at 130 V for 2 hours with NuPAGE MOPS SDS running buffer (Thermofisher Scientific® Cat #NP0001-02). Proteins were electrophoretically transferred onto a 0.45 μm nitrocellulose membrane (GE Healthcare, Amersham Protran® Supported 0.45 mm NC) at 90 V for 90 min on ice in transfer buffer (48 mM Tris base and 39 mM glycine supplemented with 20% methanol). The transferred membrane was blocked with 5% (w/v) skim milk powder dissolved in tris-buffered saline with tween (TBS-T) (50 mM Tris base, 150 mM sodium chloride (NaCl), 0.1% (v/v) Tween-20) at room temperature for 1 hour.

Rab10 pThr73 [3] = assay: as above; type: cell-based, mouse; details: Mus musculus, read-out: pRab10 inhibited in LRRK2^G2019S MEFs

Compound	inhibition at 0.033 µM (Rab10 pThr73 [1]; 33 nM/4 h treatment) [%]	inhibition at 0.033 µM (Rab10 pThr73 [1]; 33 nM/24 h treatment) [%]	inhibition at 1 µM (Rab10 pThr73 [1]; 1 μM/4 h treatment) [%]	inhibition at 1 µM (Rab10 pThr73 [1]; 1 μM/24 h treatment) [%]	inhibition at 0.033 µM (Rab10 pThr73 [2]; 33 nM/4 h treatment) [%]	inhibition at 0.033 µM (Rab10 pThr73 [2]; 33 nM/24 h treatment) [%]	inhibition at 1 µM (Rab10 pThr73 [3]; 1 μM/4 h treatment) [%]	inhibition at 1 µM (Rab10 pThr73 [3]; 1 μM/24 h treatment) [%]
CNc1nc(Nc2ccc(C(=O)N3CCN(Cc4ccc(CSC(C)(C)[C@H](NC(=O)C5(F)CC5)C(=O)N5C[C@H](O)C[C@H]5C(=O)N[C@@H](C)c5ccc(-c6scnc6C)cc5)cc4)CC3)cc2OC)ncc1Cl [XL01120, (2S,4R)-1-((R)-3-((4-((4-(4-((5-chloro-4-(methylamino)pyrimidin-2-yl)amino)-3-methoxybenzoyl)piperazin-1-yl)methyl)benzyl)thio)-2-(1-fluorocyclopropane-1-carboxamido)-3-methylbutanoyl)-4-hydroxy-N—((S)-1-(4-(4-methylthiazol-5-yl)phenyl)ethyl)pyrrolidine-2-carboxamide]	0 to 40	0 to 60	10 to 95	30 to 100	0 to 70	0 to 90	20 to 100	10 to 100
CNc1nc(Nc2ccc(C(=O)N3CCN(Cc4ccc(CSC(C)(C)[C@H](NC(=O)C5(F)CC5)C(=O)N5C[C@H](O)C[C@H]5C(=O)NCc5ccc(-c6scnc6C)c(F)c5)cc4)CC3)cc2OC)ncc1Cl [XL01121, (2S,4R)-1-((R)-3-((4-((4-(4-((5-chloro-4-(methylamino)pyrimidin-2-yl)amino)-3-methoxybenzoyl)piperazin-1-yl)methyl)benzyl)thio)-2-(1-fluorocyclopropane-1-carboxamido)-3-methylbutanoyl)-N-(3-fluoro-4-(4-methylthiazol-5-yl)benzyl)-4-hydroxypyrrolidine-2-carboxamide]	0 to 40	0 to 60	10 to 95	30 to 100	0 to 70	0 to 90	20 to 100	10 to 100
CNc1nc(Nc2ccc(C(=O)N3CCN(CCCSC(C)(C)[C@H](NC(=O)C4(F)CC4)C(=O)N4C[C@H](O)C[C@H]4C(=O)N[C@@H](C)c4ccc(-c5scnc5C)cc4)CC3)cc2OC)ncc1Cl [XL01118, (2S,4R)-1-((R)-3-((3-(4-(4-((5-chloro-4-(methylamino)pyrimidin-2-yl)amino)-3-methoxybenzoyl)piperazin-1-yl)propyl)thio)-2-(1-fluorocyclopropane-1-carboxamido)-3-methylbutanoyl)-4-hydroxy-N—((S)-1-(4-(4-methylthiazol-5-yl)phenyl)ethyl)pyrrolidine-2-carboxamide]	0 to 40	0 to 60	10 to 95	30 to 100	0 to 70	0 to 90	20 to 100	10 to 100
CNc1nc(Nc2ccc(C(=O)N3CCN(CCOCCOCCOc4cccc(C(=O)c5csc(C6CCCN6C(=O)[C@@H](NC(=O)[C@H](C)NC)C6CCCCC6)n5)c4)CC3)cc2OC)ncc1Cl (stereo partly drawn) [SD113, (S)—N—((S)-2-((S)-2-(4-(3-(2-(2-(2-(4-(4-((5-chloro-4-(methylamino)pyrimidin-2-yl)amino)-3-methoxybenzoyl)piperazin-1-yl)ethoxy)ethoxy)ethoxy)benzoyl)thiazol-2-yl)pyrrolidin-1-yl)-1-cyclohexyl-2-oxoethyl)-2-(methylamino)propenamide]	0 to 25	10 to 40	18 to 90	30 to 90	0 to 60	0 to 70	30 to 95	30 to 100
CNc1nc(Nc2ccc(C(=O)N3CCN(CC#CCSC(C)(C)[C@H](NC(=O)C4(F)CC4)C(=O)N4C[C@H](O)C[C@H]4C(=O)NCc4ccc(-c5scnc5C)cc4)CC3)cc2OC)ncc1Cl [XL01076, (2S,4R)-1-((R)-3-((4-(4-(4-((5-chloro-4-(methylamino)pyrimidin-2-yl)amino)-3 methoxybenzoyl)piperazin-1-yl)but-2-yn-1-yl)thio)-2-(1-fluorocyclopropane-1-carboxamido)-3-methylbutanoyl)-4-hydroxy-N-(4-(4-methylthiazol-5-yl)benzyl)pyrrolidine-2-carboxamide]	0 to 40	0 to 60	10 to 95	30 to 100	0 to 70	0 to 90	20 to 100	10 to 100
CNc1nc(Nc2ccc(C(=O)N3CCN(C[C@@H]4CCC[C@H](CSC(C)(C)[C@H](NC(=O)C5(F)CC5)C(=O)N5C[C@H](O)C[C@H]5C(=O)NCc5ccc(-c6scnc6C)cc5)C4)CC3)cc2OC)ncc1Cl [XL02063, (2S,4R)-1-((R)-3-((((1S,3R)-3-((4-(4-((5-chloro-4-(methylamino)pyrimidin-2-yl)amino)-3-methoxybenzoyl)piperazin-1-yl)methyl)cyclohexyl)methyl)thio)-2-(1-fluorocyclopropane-1-carboxamido)-3-methylbutanoyl)-4-hydroxy-N-(4-(4-methylthiazol-5-yl)benzyl)pyrrolidine-2-carboxamide]	0 to 70	0 to 80	80 to 100	80 to 100	0 to 90	30 to 90	10 to 100	80 to 100
